Where two headings read alike, the source gives them in different places.
What was measured:
Aedes albopictus [1] = assay: Effective dose / protection efficacy, human-bait technique; type: in vivo; settings: for pest or weed control at 0.081 µg/cm2, 0.081 µg/cm2 / pest or weed control at 0.17 µg/cm2, 0.17 µg/cm2 / pest or weed control at 0.33 µg/cm2, 0.33 µg/cm2 / pest or weed control at 0.5 µg/cm2, 0.5 µg/cm2 / pest or weed control at 0.83 µg/cm2, 0.83 µg/cm2 / pest or weed control at 1.7 µg/cm2, 1.7 µg/cm2 / pest or weed control at 8.3 µg/cm2, 8.3 µg/cm2 / pest or weed control at 16.7 µg/cm2, 16.7 µg/cm2 / pest or weed control at 83.3 µg/cm2, 83.3 µg/cm2: Aedes albopictus, topical, read-out: Protection efficacy PE%; for 100% PE: Table S1; for Protection efficacy (dose to obtain complete protection (100%) from bite attempts): applied on skin of volunteers, 3 min exposure
Method: The repellence of DEET, Icaridin (both supplied by Istituto Biochimico VEBI s.r.l.), acetals, and the synthesized hydroxyacetals was evaluated againstAedes albopictususing the human-bait technique (to simulate the condition of human skin on which repellents will be applied).[22]A. albopictuswas reared and tested at 26 ± 2 °C, ≥60 ± 10% relative humidity (RH), and at 14:10 h light/dark photoperiod, within Plexiglas cylindrical laboratory cages (35 cm diameter, 60 cm length) with one end closed by a net. During the tests, cages contained ≈150 nulliparous, 4–7 day-old, nonblood-fed females. For each compound to be tested, up to six volunteers participated in the trial.
The study was approved by the Regional Ethics Committee for Clinical Trials of Tuscany Region with the registered number 20383. Volunteers agreed to take part in the experiments following informed consent; only volunteers non-allergic to mosquito bites participated in the trials. On the day of the bioassay, they had no contact with lotions, perfumes, oils, or perfumed soaps. They wore latex surgical gloves, in which a dorsal square area of 30 cm^2 was cut open. Mosquito-exposed skin was treated with 50 μL of ethanol, as the negative hand control. The other hand was treated with 50 μL of the tested compounds in ethanol solution (dosages corresponding to 0.081, 0.17, 0.33, 0.5, 0.83, 1.7, 8.3, 16.7, and 83.3 μg/cm^2). Both hands were presented in the same test cage. The number of probing mosquitoes in a 3 min exposure period was recorded. During each test, the control and the treated hand were presented interchanged to verify the mosquitoes’ readiness to bite. Trials were considered valid only if at least 30 mosquitoes performed probing behavior on the control hand before each repellent dosage was tested. The protection efficacy (PE %) obtained from all replicates was calculated, according to the WHO guidelines[31] using this formula [drawing 1]
To evaluate the protection efficacy, volunteers applied increasing doses of the compounds to the skin on the back of their hands (30 cm^2, while the rest was covered with a rubber glove) and counted the number of mosquitoes attempting to bite; the solvent only was used on the control hand. The protection (percentage of repelled mosquitoes) was calculated as reported in the Material and Methods section.

Aedes albopictus [2] = assay: Protection time at 0.17 mg/cm2, human-bait technique; type: in vivo; settings: for pest or weed control at 0.17 mg/cm2, 0.17 mg/cm2: Aedes albopictus, topical, read-out: Protection time PE%; for Average PT >95% (% coefficient of variation) / Estimated 100% PT (complete protection time, mean±SE): at the dose of 0.17mg/cm2; for Estimated 100% PT (complete protection time, mean±SE): Kaplan–Meier estimate; for Protection time (95% protection): dose of 0.17 mg/cm^2, tests ended after 8 h
Method: To evaluate the protection time of derivatives, the PE % was measured with 100 μL of a 5% ethanol solution, corresponding to 0.17 mg/cm^2 of exposed skin, under the same laboratory conditions. Mosquito-exposed skin was treated with 100 μL of ethanol, as the negative hand control. For each volunteer (up to 8), the test was performed every hour, up to 8 h from the application. The protection time of DEET and Icaridin was measured under the same conditions. Since these trials were run in parallel with those aimed to profile the cytotoxicity of the compounds (paragraph 2.6), we interrupted the experiments for those compounds showing to have higher cytotoxicity than Icaridin and DEET as soon as the results were available. For this reason, the number of volunteers differs among the compounds.
The average time until protection which was higher than 95% protection time was considered for each compound. Moreover, for the compounds tested on at least three volunteers, the complete (100%) protection time was also estimated (SPSS 28.01.0) using the Kaplan–Meier survivor function procedure.[22]

HaCaT cells = assay: Cytotoxicity on human keratinocytes (MTS); type: cell-based; settings: 82 μg/mL, 24 h
Method: HaCaT cells were cultured in 5% CO2 at 37 °C in Dulbecco’s modified Eagle’s medium (DMEM), supplemented with 10% fetal bovine serum (FBS), 1% L-glutamine ([…]), and 1% penicillin–streptomycin (Thermo Fisher Scientific, Rodano, Milan, Italy). […] Experiments were performed in triplicate.

Row | SMILES | pest or weed control at 0.081 µg/cm2, 0.081 µg/cm2 (Aedes albopictus [1]) | pest or weed control at 0.17 µg/cm2, 0.17 µg/cm2 (Aedes albopictus [1]) | pest or weed control at 0.33 µg/cm2, 0.33 µg/cm2 (Aedes albopictus [1]) | pest or weed control at 0.5 µg/cm2, 0.5 µg/cm2 (Aedes albopictus [1]) | pest or weed control at 0.83 µg/cm2, 0.83 µg/cm2 (Aedes albopictus [1]) | pest or weed control at 1.7 µg/cm2, 1.7 µg/cm2 (Aedes albopictus [1]) | pest or weed control at 8.3 µg/cm2, 8.3 µg/cm2 (Aedes albopictus [1]) | pest or weed control at 16.7 µg/cm2, 16.7 µg/cm2 (Aedes albopictus [1]) | pest or weed control at 83.3 µg/cm2, 83.3 µg/cm2 (Aedes albopictus [1]) | 100% PE (Aedes albopictus [1]) | Protection efficacy (dose to obtain complete protection (100%) from bite attempts) (Aedes albopictus [1]) | pest or weed control at 0.17 mg/cm2, 0.17 mg/cm2 (Aedes albopictus [2]; 0.17mg/cm2, 1 h) | pest or weed control at 0.17 mg/cm2, 0.17 mg/cm2 (Aedes albopictus [2]; 0.17mg/cm2, 2 h) | pest or weed control at 0.17 mg/cm2, 0.17 mg/cm2 (Aedes albopictus [2]; 0.17mg/cm2, 3 h) | pest or weed control at 0.17 mg/cm2, 0.17 mg/cm2 (Aedes albopictus [2]; 0.17mg/cm2, 4 h) | pest or weed control at 0.17 mg/cm2, 0.17 mg/cm2 (Aedes albopictus [2]; 0.17mg/cm2, 5 h) | pest or weed control at 0.17 mg/cm2, 0.17 mg/cm2 (Aedes albopictus [2]; 0.17mg/cm2, 6 h) | pest or weed control at 0.17 mg/cm2, 0.17 mg/cm2 (Aedes albopictus [2]; 0.17mg/cm2, 7 h) | Average PT >95% (% coefficient of variation) (Aedes albopictus [2]) | Protection time (95% protection) (Aedes albopictus [2]) | further results
1 | CC1(CO)COC2(CCCCC2)OC1 [6b] | 48.4% | 62.7% | 77% | 64.9% | 100% | 100% | 100% | 100% | 100% | 0.83 µg/cm2 | 0.83 μg/cm^2 | 100% | 99.1% | 100% | 100% | 99.4% | 90.8% | 97.3% | 480 (3.3) min | 8 h | pest or weed control at 0.17 mg/cm2, 0.17 mg/cm2 (Aedes albopictus [2]; 0.17mg/cm2, 8 h): 95.1%; Estimated 100% PT (complete protection time, mean±SE) (Aedes albopictus [2]): 375 ± 89 min; survival of keratocytes (HaCaT cells): > 88%
2 | CCCCC1(CCCC)OCC(CC)(CO)CO1 [16c] | 6.06% | 59.5% | 8.39% | 36.2% | 52.9% | 95.5% | 100% | 100% | 100% | 1.7 µg/cm2 | 8.3 μg/cm^2 | 99% | 96.3% | 97.6% | 97.1% | 94.8% | 95.4% | 95.1% | 480 (1.4) min | 8 h | pest or weed control at 0.17 mg/cm2, 0.17 mg/cm2 (Aedes albopictus [2]; 0.17mg/cm2, 8 h): 99%; survival of keratocytes (HaCaT cells): > 88%
3 | CCCCCCCCCC1(C)OCC(CO)O1 (stereo not drawn) [22a] | 2.83% | 32.6% | 50% | 37.5% | 65.4% | 94.2% | 100% | 100% | 100% | – | 8.3 μg/cm^2 | 100% | 100% | 98.9% | 98.2% | 95.2% | 99.5% | 96.6% | 420 (3.5) min | 7 h | pest or weed control at 0.17 mg/cm2, 0.17 mg/cm2 (Aedes albopictus [2]; 0.17mg/cm2, 8 h): 90%; Estimated 100% PT (complete protection time, mean±SE) (Aedes albopictus [2]): 380 ± 105 min
4 | CCN(CC)C(=O)c1cccc(C)c1 [DEET, N,N-diethyl-3-methylbenzamide, reference compound] | 18.9% | 34.7% | 67.3% | 74.4% | 79.8% | 88.6% | 100% | 100% | 100% | 8.3 µg/cm2 | 8.3 μg/cm^2 | 98% | 87.4% | 81.4% | 59.4% | – | – | – | 120 (1.4) min | 2 h | Estimated 100% PT (complete protection time, mean±SE) (Aedes albopictus [2]): 120 ± 26 min

— article PMC9896555, “Cyclic Acetals as Novel Long-Lasting Mosquito Repellents” (Journal of Agricultural and Food Chemistry, 2023)
